# Positions of bridges follow the written chain, without caps; N, C: chain ends. Non-standard residues stand in square brackets, D forms with d. Residues, ends and D or L forms follow the SMILES beside them. Chains are numbered I, II in the order given. 2Nal = N[C@@H](Cc1ccc2ccccc2c1)C(=O)O; Lys(iPr) = CC(C)NCCCC[C@H](N)C(=O)O
# Experiments:
# [1] = target: T1, CXCR4 R30A (Homo sapiens, UniProt P61073, R30A); assay: Competitive binding to CXCR4 mutant R30A (12G5, CHO cells); set-up: key to the marks not given beside the values; details: TM1, class of reduction vs wild-type CXCR4, 12G5 competition, averages of at least three independent experiments
# T1 construct: expressed in transfected cells
# T1 sequence (P61073 whole entry R30A): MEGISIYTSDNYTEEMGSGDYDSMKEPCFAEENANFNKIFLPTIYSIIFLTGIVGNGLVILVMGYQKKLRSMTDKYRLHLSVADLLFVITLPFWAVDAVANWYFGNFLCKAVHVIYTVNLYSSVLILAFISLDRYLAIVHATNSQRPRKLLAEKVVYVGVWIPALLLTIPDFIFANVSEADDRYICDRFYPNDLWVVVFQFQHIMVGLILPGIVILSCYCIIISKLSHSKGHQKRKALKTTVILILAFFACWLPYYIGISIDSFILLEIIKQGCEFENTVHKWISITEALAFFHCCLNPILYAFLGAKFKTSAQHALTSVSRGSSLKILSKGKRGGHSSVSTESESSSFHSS
# Description: (§1) Plasmid pcDNA3-CXCR4 and mutated pcDNA3-CXCR4 were extracted and transfected into CHO cells using Lipofectamine 2000 according to the manufacturer’s guidelines. The selective medium containing G418 at a concentration of 1.2 mg/ml was applied to isolate stably transfected cells. CHO cells expressing wild-type CXCR4 and mutant CXCR4 were obtained using fluorescence-activated cell sorting (FACS).
# (§2) All of the CXCR4 mutants were prepared using PCR technology. Briefly, pairs of asymmetrical primers containing the desired amino acid mutations (Supplementary Tables S1 and S2), each complementary to opposite strands of the pcDNA3–CXCR4, were designed for amplification by Q5® High-Fidelity DNA polymerase and the generation of mutated constructs. The methylated pcDNA3–CXCR4 templates were digested by DpnI. The mutated pcDNA3–CXCR4 was transformed into competent E. coli TOP10 for long-term storage and amplification.
# (§3) The procedure for the CXCR4 competitive binding experiments was published previously. Briefly, CXCR4 antibody 12G5 (250 ng/ml) was incubated with 5 × 10^5 cells and varying concentrations of unlabeled compounds in a final volume of 100 μl of assay buffer (PBS with 0.5% BSA and 0.05% NaN3) in 96-well plates for 40 min on ice, after being washed with assay buffer once. The cells were incubated with FITC-conjugated second antibody IgG for 30 min on ice, then washed with assay buffer three times. The fluorescence intensity was measured for excitation at 485 nm and emission at 535 nm using multimode plate reader (PerkinElmer). The IC50 values were calculated using graphpad Prism 7. Experiments were performed at least three times.
# [2] = target: CXCR4 (Homo sapiens, UniProt P61073); assay: SDF-1α-induced cell migration assay in SupT1 cells (transwell); assay type: cell-based; set-up: host or cells: SupT1 cells; details: 2 nM SDF-1α, 30 min pre-incubation, 3 h migration; for inhibition at 0.2 µM: SUP-T1, at 200 nM
# Chain of CXCR4 (Homo sapiens, UniProt P61073) (P61073 whole entry): as the sequence (P61073 whole entry R30A) above, with A30R counted along it
# Description: Figure 2 The inhibitory effect of the antagonists on SDF-1α-induced cell chemotaxis and calcium mobilization in SupT1 cells The antagonists and concentrations used were labeled in each lane. (A) The inhibition of cell migration by the noted antagonists. SupT1 cells pre-treated with or without CXCR4 antagonists were seeded in the upper well and cell migrated by 2 nM SDF-1α. Migrated cells without SDF-1α were used as a negative (0%) and migrated cell induced by SDF-1α as a positive control (100%). […] SupT1 cells were treated with or without CXCR4 antagonists and activated by 50 nM SDF-1α. To directly compare the inhibitory effect of the antagonists on calcium mobilization, the vehicle background and baseline were removed using GraphPad and Origin. The data were averages of at least three independent experiments.
# SupT1 cells (2 × 10^6 cells per well in 75 μl) were collected and washed using assay buffer (RPMI 1640 supplemented with 0.5% BSA) and incubated with various concentrations of tested compounds for 30 min in the upper well of the transwell-96 well plates with 5.0 µm pore polycarbonate membrane insert (Corning, U.S.A.). Then, 200 μl assay buffer containing 2 nM SDF-1α was added to the lower well and cells were allowed to migrate for 3 h. Migrated cells were measured using celltiter-96 reagent.
# [3] = target: T2, CXCR4 Q200A (Homo sapiens, UniProt P61073, Q200A); assay: Competitive binding to CXCR4 mutant Q200A (12G5, CHO cells); set-up: key to the marks not given beside the values; details: TM5, class of reduction vs wild-type CXCR4, 12G5 competition, averages of at least three independent experiments
# T2 construct: expressed in transfected cells
# T2 sequence (P61073 whole entry Q200A): as the sequence (P61073 whole entry R30A) above, with A30R, Q200A counted along it
# Description: as §1, §2, §3
# [4] = target: T3, CXCR4 W94A (Homo sapiens, UniProt P61073, W94A); assay: Competitive binding to CXCR4 mutant W94A (12G5, CHO cells); details: TM2, class of reduction vs wild-type CXCR4, 12G5 competition, averages of at least three independent experiments
# T3 construct: expressed in transfected cells
# T3 sequence (P61073 whole entry W94A): as the sequence (P61073 whole entry R30A) above, with A30R, W94A counted along it
# Description: as §1, §2, §3
# [5] = target: T4, CXCR4 N119A (Homo sapiens, UniProt P61073, N119A); assay: Competitive binding to CXCR4 mutant N119A (12G5, CHO cells); details: TM3, class of reduction vs wild-type CXCR4, 12G5 competition, averages of at least three independent experiments
# T4 construct: expressed in transfected cells
# T4 sequence (P61073 whole entry N119A): as the sequence (P61073 whole entry R30A) above, with A30R, N119A counted along it
# Description: as §1, §2, §3
# [6] = target: T5, CXCR4 D262N (Homo sapiens, UniProt P61073, D262N); assay: Competitive binding to CXCR4 mutant D262N (12G5, CHO cells); details: TM6, class of reduction vs wild-type CXCR4, 12G5 competition, averages of at least three independent experiments
# T5 construct: expressed in transfected cells
# T5 sequence (P61073 whole entry D262N): as the sequence (P61073 whole entry R30A) above, with A30R, D262N counted along it
# Description: as §1, §2, §3
# [7] = target: T6, CXCR4 Y256A (Homo sapiens, UniProt P61073, Y256A); assay: Competitive binding to CXCR4 mutant Y256A (12G5, CHO cells); details: TM6, class of reduction vs wild-type CXCR4, 12G5 competition, averages of at least three independent experiments
# T6 construct: expressed in transfected cells
# T6 sequence (P61073 whole entry Y256A): as the sequence (P61073 whole entry R30A) above, with A30R, Y256A counted along it
# Description: as §1, §2, §3
# [8] = target: T7, CXCR4 W252A (Homo sapiens, UniProt P61073, W252A); assay: Competitive binding to CXCR4 mutant W252A (12G5, CHO cells); details: TM6, class of reduction vs wild-type CXCR4, 12G5 competition, averages of at least three independent experiments
# T7 construct: expressed in transfected cells
# T7 sequence (P61073 whole entry W252A): as the sequence (P61073 whole entry R30A) above, with A30R, W252A counted along it
# Description: as §1, §2, §3
# [9] = target: T8, CXCR4 I259A (Homo sapiens, UniProt P61073, I259A); assay: Competitive binding to CXCR4 mutant I259A (12G5, CHO cells); set-up: key to the marks not given beside the values; details: TM6, class of reduction vs wild-type CXCR4, 12G5 competition, averages of at least three independent experiments
# T8 construct: expressed in transfected cells
# T8 sequence (P61073 whole entry I259A): as the sequence (P61073 whole entry R30A) above, with A30R, I259A counted along it
# Description: as §1, §2, §3
# [10] = tested on: CXCR4; details: cited from earlier work
# From the text: To understand the receptor–ligand recognition mechanism involving CXCR4 and its antagonists, here in this study we conducted a series of comparative analyses of the biological activities and CXCR4 binding sites of eleven known CXCR4 antagonists, including the three mentioned above, using cell-based bioassays, CXCR4 site-directed mutagenesis and computer-aided molecular modeling. These antagonists studied here were chosen from different representative structural types including both D-peptides (i.e., HC4319, DV1, DV1 dimer, and DV3) and a representative counterpart L-peptide (i.e., V1) derived ...
# [11] = target: T9, CXCR4 I284A (Homo sapiens, UniProt P61073, I284A); assay: Competitive binding to CXCR4 mutant I284A (12G5, CHO cells); details: TM7, class of reduction vs wild-type CXCR4, 12G5 competition, averages of at least three independent experiments
# T9 construct: expressed in transfected cells
# T9 sequence (P61073 whole entry I284A): as the sequence (P61073 whole entry R30A) above, with A30R, I284A counted along it
# Description: as §1, §2, §3
# [12] = target: T10, CXCR4 D193A (Homo sapiens, UniProt P61073, D193A); assay: Competitive binding to CXCR4 mutant D193A (12G5, CHO cells); details: TM4, class of reduction vs wild-type CXCR4, 12G5 competition, averages of at least three independent experiments
# T10 construct: expressed in transfected cells
# T10 sequence (P61073 whole entry D193A): as the sequence (P61073 whole entry R30A) above, with A30R, D193A counted along it
# Description: as §1, §2, §3
# [13] = target: T11, CXCR4 D171A (Homo sapiens, UniProt P61073, D171A); assay: Competitive binding to CXCR4 mutant D171A (12G5, CHO cells); details: TM4, class of reduction vs wild-type CXCR4, 12G5 competition, averages of at least three independent experiments
# T11 construct: expressed in transfected cells
# T11 sequence (P61073 whole entry D171A): as the sequence (P61073 whole entry R30A) above, with A30R, D171A counted along it
# Description: as §1, §2, §3
# [14] = target: T12, CXCR4 E288A (Homo sapiens, UniProt P61073, E288A); assay: Competitive binding to CXCR4 mutant E288A (12G5, CHO cells); details: TM7, class of reduction vs wild-type CXCR4, 12G5 competition, averages of at least three independent experiments
# T12 construct: expressed in transfected cells
# T12 sequence (P61073 whole entry E288A): as the sequence (P61073 whole entry R30A) above, with A30R, E288A counted along it
# Description: as §1, §2, §3
# [15] = target: T13, CXCR4 E288D (Homo sapiens, UniProt P61073, E288D); assay: Competitive binding to CXCR4 mutant E288D (12G5, CHO cells); details: TM7, class of reduction vs wild-type CXCR4, 12G5 competition, averages of at least three independent experiments
# T13 construct: expressed in transfected cells
# T13 sequence (P61073 whole entry E288D): as the sequence (P61073 whole entry R30A) above, with A30R, E288D counted along it
# Description: as §1, §2, §3
# [16] = target: T14, CXCR4 E288Q (Homo sapiens, UniProt P61073, E288Q); assay: Competitive binding to CXCR4 mutant E288Q (12G5, CHO cells); details: TM7, class of reduction vs wild-type CXCR4, 12G5 competition, averages of at least three independent experiments
# T14 construct: expressed in transfected cells
# T14 sequence (P61073 whole entry E288Q): as the sequence (P61073 whole entry R30A) above, with A30R, E288Q counted along it
# Description: as §1, §2, §3
"Competitive receptor binding activity, CXCR4 R30A [1]",inhibition at 0.2 µM [2],"Competitive receptor binding activity, CXCR4 Q200A [3]","Competitive receptor binding activity, CXCR4 N119A [5]","Competitive receptor binding activity, CXCR4 D262N [6]","Competitive receptor binding activity, CXCR4 I259A [9]","inhibition at 0.4 µM ([2]; SUP-T1, at 400 nM)",SMILES,"Competitive receptor binding activity, CXCR4 W94A [4]","Competitive receptor binding activity, CXCR4 Y256A [7]","Competitive receptor binding activity, CXCR4 W252A [8]",Potency (in words) [10],"Competitive receptor binding activity, CXCR4 I284A [11]","Competitive receptor binding activity, CXCR4 D193A [12]","Competitive receptor binding activity, CXCR4 D171A [13]",Binding affinity (in words) [10],"inhibition at 4 µM ([2]; SUP-T1, at 4 μM)","Competitive receptor binding activity, CXCR4 E288A [14]","Competitive receptor binding activity, CXCR4 E288D [15]","Competitive receptor binding activity, CXCR4 E288Q [16]"
+++,80%,+++,+++,+++,+++,,NCCCCN(Cc1nc2ccccc2[nH]1)[C@H]1CCCc2cccnc21 [AMD11070],++ (10–29% reduction compared with wild-type CXCR4),+++,+++,nanomolar potent,+++,+++,+ (30–60% reduction compared with wild-type CXCR4),,,,,
+++,61%,+++,+++,,+++,,c1cc(CN2CCCNCCNCCCNCC2)ccc1CN1CCCNCCNCCCNCC1 [AMD3100],,+++,+++,submicromolar,+++,++ (10–29% reduction compared with wild-type CXCR4),+ (30–60% reduction compared with wild-type CXCR4),,,,,

SMILES,"Competitive receptor binding activity, CXCR4 R30A [1]",inhibition at 0.2 µM [2],"Competitive receptor binding activity, CXCR4 Q200A [3]","Competitive receptor binding activity, CXCR4 N119A [5]","Competitive receptor binding activity, CXCR4 D262N [6]","Competitive receptor binding activity, CXCR4 I259A [9]","inhibition at 0.4 µM ([2]; SUP-T1, at 400 nM)","Competitive receptor binding activity, CXCR4 W94A [4]","Competitive receptor binding activity, CXCR4 Y256A [7]","Competitive receptor binding activity, CXCR4 W252A [8]",Potency (in words) [10],"Competitive receptor binding activity, CXCR4 I284A [11]","Competitive receptor binding activity, CXCR4 D193A [12]","Competitive receptor binding activity, CXCR4 D171A [13]",Binding affinity (in words) [10],"inhibition at 4 µM ([2]; SUP-T1, at 4 μM)","Competitive receptor binding activity, CXCR4 E288A [14]","Competitive receptor binding activity, CXCR4 E288D [15]","Competitive receptor binding activity, CXCR4 E288Q [16]"
CC(C)NCCCC[C@H](NC(=O)[C@H]1CCC(=O)N[C@@H](Cc2ccccc2)C(=O)N[C@@H](Cc2ccc(O)cc2)C(=O)N[C@@H](CCCCNC(C)C)C(=O)N[C@H](CCCNC(=N)N)C(=O)N[C@@H](Cc2ccc3ccccc3c2)C(=O)NCC(=O)N1)C(N)=O [LY2510924] (FY[Lys(iPr)][dR][2Nal]G[dE][Lys(iPr)]-NH2; lactam N-7 (inferred)),+++,,,+ (30–60% reduction compared with wild-type CXCR4),+++,,76%,,++ (10–29% reduction compared with wild-type CXCR4),++ (10–29% reduction compared with wild-type CXCR4),,++ (10–29% reduction compared with wild-type CXCR4),+++,,subnanomolar,,,,
CC(C)C[C@@H](N)C(=O)NCC(=O)N[C@H](C)C(=O)N[C@H](CO)C(=O)N[C@H](Cc1c[nH]c2ccccc12)C(=O)N[C@H](Cc1c[nH]cn1)C(=O)N[C@H](CCCNC(=N)N)C(=O)N1CCC[C@@H]1C(=O)N[C@H](CC(=O)O)C(=O)N[C@H](CCCCN)C(=O)NCCCC[C@@H](NC(=O)[C@H]1CCCN1C(=O)[C@@H](CC(C)C)NC(=O)[C@H]1CCCN1C(=O)[C@@H](CCCNC(=N)N)NC(=O)[C@@H](CCCCN)NC(=O)[C@@H](CCC(N)=O)NC(=O)[C@@H](Cc1ccc(O)cc1)NC(=O)CNC(=O)[C@@H](CC(C)C)NC(=O)[C@@H](CS)NC(=O)[C@@H](CS)NC(=O)[C@@H](CCCCN)NC(=O)[C@@H](CC(=O)O)NC(=O)[C@H]1CCCN1C(=O)[C@@H](CCCNC(=N)N)NC(=O)[C@@H](Cc1c[nH]cn1)NC(=O)[C@@H](Cc1c[nH]c2ccccc12)NC(=O)[C@@H](CO)NC(=O)[C@@H](C)NC(=O)CNC(=O)[C@H](N)CC(C)C)C(=O)O [HC4319] (I: H-[dL]G[dA][dS][dW][dH][dR][dP][dD][dK][dC][dC][dL]G[dY][dQ][dK][dR][dP][dL][dP][dK]-OH / II: H-[dL]G[dA][dS][dW][dH][dR][dP][dD][dK]; amide I:22-II:C; N-terminus and C-terminus assumed),+++,,+++,,++ (10–29% reduction compared with wild-type CXCR4),+++,,,+++,+++,,+++,++ (10–29% reduction compared with wild-type CXCR4),+++,,56%,+ (30–60% reduction compared with wild-type CXCR4),+ (30–60% reduction compared with wild-type CXCR4),++ (10–29% reduction compared with wild-type CXCR4)
